Each molecule was assayed against T1, Mitogen-activated protein kinase 14 (Homo sapiens, UniProt Q16539) (assay: Inhibition of p38alpha assessed as inhibition of [gamma-33P]ATP incorporation into substrate after 4 hrs by radiometric assay).
T1 sequence (Q16539 whole entry): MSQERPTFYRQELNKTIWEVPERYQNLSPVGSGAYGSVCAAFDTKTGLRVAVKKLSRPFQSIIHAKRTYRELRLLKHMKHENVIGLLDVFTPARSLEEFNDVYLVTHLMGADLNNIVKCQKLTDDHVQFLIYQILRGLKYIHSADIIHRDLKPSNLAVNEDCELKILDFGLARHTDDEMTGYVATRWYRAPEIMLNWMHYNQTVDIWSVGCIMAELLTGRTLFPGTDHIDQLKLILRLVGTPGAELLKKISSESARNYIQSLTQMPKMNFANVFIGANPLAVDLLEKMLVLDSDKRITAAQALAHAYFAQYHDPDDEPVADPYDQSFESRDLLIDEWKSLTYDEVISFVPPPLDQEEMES
In the case of CONC(=O)c1ccc(C)c(Nc2nc(NCC3CCCC(CN)C3)nc(NC3CCCCC3)n2)c1 (stereo not drawn), the IC50 is reported as at most 2 nM.
For CONC(=O)c1ccc(C)c(Nc2nc(NCC3CCCC(CN)C3)nc(NC(C)C(C)(C)C)n2)c1 (stereo not drawn), the IC50 was at most 2 nM.
In the case of CONC(=O)c1ccc(C)c(Nc2nc(NCc3cccc(C)c3)nc(NC(C)C(C)(C)C)n2)c1 (stereo not drawn), the IC50 is reported as 15 nM.

These molecules were tested against T2, Aurora kinase A (Homo sapiens, UniProt O14965) (assay: Inhibition of Aurora A ATP-binding site assessed as inhibition of [gamma-33P]ATP incorporation into substrate by scintillation counting).
T2 sequence (O14965 whole entry): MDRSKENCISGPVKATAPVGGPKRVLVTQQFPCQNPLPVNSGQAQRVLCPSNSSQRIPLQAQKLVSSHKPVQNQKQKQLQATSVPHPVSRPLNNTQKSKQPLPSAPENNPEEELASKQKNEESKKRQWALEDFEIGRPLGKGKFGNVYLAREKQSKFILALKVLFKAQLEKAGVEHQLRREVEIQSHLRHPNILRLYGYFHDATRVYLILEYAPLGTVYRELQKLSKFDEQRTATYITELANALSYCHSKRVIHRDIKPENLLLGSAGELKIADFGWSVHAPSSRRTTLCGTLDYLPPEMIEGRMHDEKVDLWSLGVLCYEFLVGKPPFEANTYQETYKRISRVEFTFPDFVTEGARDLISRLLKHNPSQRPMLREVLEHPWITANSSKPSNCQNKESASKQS
Work on CNc1nc(NCCc2ccccc2OC)nc(Nc2ccc3ncccc3c2)n1 yielded an IC50 of 5.1 nM.
COc1ccccc1CCNc1nc(NC(Cc2c[nH]c3ncccc23)C(N)=O)nc(N(C)[C@@H](C)c2ccccc2)n1 (stereo partly drawn) showed an IC50 of 6.3 nM.
Work on COc1ccccc1CCNc1nc(Nc2ccc3ncccc3c2)nc(NC(Cc2c[nH]c3ncccc23)C(N)=O)n1 (stereo not drawn) yielded an IC50 of 3.7 nM.
In the case of CCCCN(C)c1nc(NCCc2ccccc2OC)nc(NCCc2c[nH]c3ncccc23)n1, the IC50 is reported as 1.2 nM.
Molecule CCCCN(C)c1nc(NCCc2ccccc2OC)nc(NC(Cc2c[nH]c3ncccc23)C(N)=O)n1 (stereo not drawn) has an IC50 of 3.8 nM.

These molecules were tested against T1, Mitogen-activated protein kinase 14 (assay: Displacement of […] form p38alpha after 30 mins by luminescence assay).
CNC(=O)[C@H](Cc1ccc2c(c1)COC(C)(C)O2)Nc1nc(-n2cnc3ccc(C(=O)N4CCCc5ccccc54)cc32)nc(=O)[nH]1 showed an EC50 of at most 7 nM.
Molecule CNC(=O)[C@H](Cc1ccc2c(c1)COC(C)(C)O2)Nc1nc(O)nc(-n2cnc3cc(C(=O)N4CCCc5ccccc54)ccc32)n1 has an EC50 of 5200 nM.
CCOc1nc(N[C@@H](Cc2ccc3c(c2)COC(C)(C)O3)C(=O)NC)nc(-n2cnc3ccc(C(=O)N4CCCc5ccccc54)cc32)n1 showed an EC50 of at most 8 nM.
CCOc1nc(N[C@@H](Cc2ccc3c(c2)COC(C)(C)O3)C(=O)NC)nc(-n2cnc3cc(C(=O)N4CCCc5ccccc54)ccc32)n1 gave an EC50 of 2700 nM.

The molecules below were run against T2, Aurora kinase A (assay: Inhibition of Aurora A ATP-binding site).
Work on Cc1cc(Nc2cc(N3CCN(CC(=O)O)CC3)nc(Sc3ccc(NC(=O)C4CC4)cc3)n2)n[nH]1 yielded a Ki of 20 nM.

Reference: ChEMBL document CHEMBL1212727, “Design, synthesis and selection of DNA-encoded small-molecule libraries” (Nat Chem Biol, 2009)
